For 30 compounds, IC50 results are on record in patent US8703768B2, “Nitrogen containing heteroaryl compounds” (Hoffmann-La Roche Inc., priority 2010, dated 2014).

For the experiment, the target named is human PDE10A (Homo sapiens (Human), UniProt Q9Y233). Kind of experiment: human PDE10A full length Scintillation Proximity Assay (SPA). In kind it is biochemical. Particulars: 50 nM cGMP and 50 nM [3H]-cGMP, 20 minutes at room temperature; read-out: PDE10A inhibition IC50. As to the method:
The following test was carried out in order to determine the activity of the compounds of the present invention.
The human PDE10A full length assay was performed in 96-well micro titer plates. […] Non-specific activity was tested without the enzyme. The reaction was initiated by the addition of the substrate solution (cGMP and [^3H]-cGMP) and allowed to progress for 20 minutes at room temperature. The reaction was terminated by adding 25 μl of YSi-SPA scintillation beads (GE Healthcare, cat. # RPNQ0150) in 18 mM zinc sulphate solution (stop reagent). After 1 h under shaking, the plate was centrifuged one minute at 170 g to allow beads to settle. Afterwards, radioactive counts were measured on a Perkin Elmer TopCount Scintillation plate reader.
(Scintillation proximity formats need no separation of bound from free tracer.)

The structures appear in SMILES notation.

Usually IC50 stands for the point on the concentration scale where inhibition reaches its midpoint.

human PDE10A, sequence (Q9Y233 other isoform, or with tags, fused parts or gaps): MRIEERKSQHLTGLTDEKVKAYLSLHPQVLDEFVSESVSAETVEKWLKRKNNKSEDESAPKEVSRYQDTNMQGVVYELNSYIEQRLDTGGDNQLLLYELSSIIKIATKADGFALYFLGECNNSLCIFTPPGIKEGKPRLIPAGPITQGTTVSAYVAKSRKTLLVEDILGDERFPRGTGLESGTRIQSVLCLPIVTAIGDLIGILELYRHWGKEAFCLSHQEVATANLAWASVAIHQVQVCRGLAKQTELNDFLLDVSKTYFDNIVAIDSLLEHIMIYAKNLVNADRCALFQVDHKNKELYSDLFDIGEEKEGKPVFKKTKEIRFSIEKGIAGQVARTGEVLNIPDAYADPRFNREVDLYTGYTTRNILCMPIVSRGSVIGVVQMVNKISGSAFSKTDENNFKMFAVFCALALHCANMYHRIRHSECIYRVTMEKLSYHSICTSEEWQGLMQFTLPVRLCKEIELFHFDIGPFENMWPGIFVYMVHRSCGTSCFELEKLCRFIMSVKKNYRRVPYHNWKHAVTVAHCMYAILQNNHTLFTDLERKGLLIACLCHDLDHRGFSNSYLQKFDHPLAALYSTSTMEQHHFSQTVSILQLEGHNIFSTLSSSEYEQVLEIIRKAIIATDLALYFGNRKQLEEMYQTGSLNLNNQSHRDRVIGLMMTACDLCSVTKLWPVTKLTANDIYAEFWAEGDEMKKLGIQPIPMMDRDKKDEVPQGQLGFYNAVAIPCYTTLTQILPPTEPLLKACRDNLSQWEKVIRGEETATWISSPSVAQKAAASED

Turning to `CNC(=O)c1nnsc1NC(=O)c1nc(C2CC2)ccc1Nc1cncnc1` [Example 54, 6-Cyclopropyl-3-(pyrimidin-5-ylamino)-pyridine-2-carboxylic acid (4-methylcarbamoyl-[1,2,3]thiadiazol-5-yl)-amide], the half-inhibitory concentration (IC50) was 25 nM.
As to `CC1CCCN1C(=O)c1ccncc1NC(=O)c1nc(C2CC2)ccc1Nc1cncnc1` (stereo not drawn) [Example 55, 6-Cyclopropyl-3-(pyrimidin-5-ylamino)-pyridine-2-carboxylic acid [4-(2-methyl-pyrrolidine-1-carbonyl)-pyridin-3-yl]-amide], the IC50 was determined as 115 nM.
For `O=C(Nc1cnccc1C(=O)N1CCC(F)(F)C1)c1nc(C2CC2)ccc1Nc1cncnc1` [Example 56, 6-Cyclopropyl-3-(pyrimidin-5-ylamino)-pyridine-2-carboxylic acid [4-(3,3-difluoro-pyrrolidine-1-carbonyl)-pyridin-3-yl]-amide], the concentration for half-maximal inhibition (IC50) is 65.7 nM.
For `O=C(NC1CC1)c1ccncc1NC(=O)c1nc(C2CC2)ccc1Nc1cncnc1` [Example 57, 6-Cyclopropyl-3-(pyrimidin-5-ylamino)-pyridine-2-carboxylic acid (4-cyclopropylcarbamoyl-pyridin-3-yl)-amide], the IC50 came out at 2.1 nM.
On to `O=C(NC1CCC1)c1ccncc1NC(=O)c1nc(C2CC2)ccc1Nc1cncnc1` [Example 58, 6-Cyclopropyl-3-(pyrimidin-5-ylamino)-pyridine-2-carboxylic acid (4-cyclobutylcarbamoyl-pyridin-3-yl)-amide], for which the IC50 stood at 1.1 nM.
As to `CC1CCC(C)N1C(=O)c1ccncc1NC(=O)c1nc(C2CC2)ccc1Nc1cncnc1` (stereo not drawn) [Example 59, 6-Cyclopropyl-3-(pyrimidin-5-ylamino)-pyridine-2-carboxylic acid [4-(2,5-dimethyl-pyrrolidine-1-carbonyl)-pyridin-3-yl]-amide], the IC50 was 84.4 nM.
Turning to `O=C1CN(C(=O)c2ccncc2NC(=O)c2nc(C3CC3)ccc2Nc2cncnc2)CCN1` [Example 60, 6-Cyclopropyl-3-(pyrimidin-5-ylamino)-pyridine-2-carboxylic acid [4-(3-oxo-piperazine-1-carbonyl)-pyridin-3-yl]-amide], the IC50 is 232 nM.
`O=C(NC1CCCC1)c1ccncc1NC(=O)c1nc(C2CC2)ccc1Nc1cncnc1` [Example 61, 6-Cyclopropyl-3-(pyrimidin-5-ylamino)-pyridine-2-carboxylic acid (4-cyclopentylcarbamoyl-pyridin-3-yl)-amide]: the IC50 came to 1.3 nM.
`COC1CCN(C(=O)c2ccncc2NC(=O)c2nc(C3CC3)ccc2Nc2cncnc2)C1` (stereo not drawn) [Example 62, 6-Cyclopropyl-3-(pyrimidin-5-ylamino)-pyridine-2-carboxylic acid [4-(3-methoxy-pyrrolidine-1-carbonyl)-pyridin-3-yl]-amide]: the half-maximal inhibitory concentration (IC50) worked out at 93.9 nM.
The figure for `CC1(C)CCN(C(=O)c2ccncc2NC(=O)c2nc(C3CC3)ccc2Nc2cncnc2)C1` [Example 63, 6-Cyclopropyl-3-(pyrimidin-5-ylamino)-pyridine-2-carboxylic acid [4-(3,3-dimethyl-pyrrolidine-1-carbonyl)-pyridin-3-yl]-amide] is 87 nM; for `CNC(=O)c1nc(-c2ccccc2)sc1NC(=O)c1nc(C2CC2)ccc1Nc1cncnc1` [Example 64, 6-Cyclopropyl-3-(pyrimidin-5-ylamino)-pyridine-2-carboxylic acid (4-methylcarbamoyl-2-phenyl-thiazol-5-yl)-amide] it is 1110 nM.
The figure for `CNC(=O)c1nc(-c2ccccn2)sc1NC(=O)c1nc(C2CC2)ccc1Nc1cncnc1` [Example 65, 6-Cyclopropyl-3-(pyrimidin-5-ylamino)-pyridine-2-carboxylic acid (4-methylcarbamoyl-2-pyridin-2-yl-thiazol-5-yl)-amide] is 1.4 nM; for `CC(CO)NC(=O)c1ccncc1NC(=O)c1nc(C2CC2)ccc1Nc1cncnc1` (stereo not drawn) [Example 66, 6-Cyclopropyl-3-(pyrimidin-5-ylamino)-pyridine-2-carboxylic acid [4-(2-hydroxy-1-methyl-ethylcarbamoyl)-pyridin-3-yl]-amide] it is 47.8 nM; for `O=C(Nc1cnccc1C(=O)N1CCC1)c1nc(C2CC2)ccc1Nc1cncnc1` [Example 67, 6-Cyclopropyl-3-(pyrimidin-5-ylamino)-pyridine-2-carboxylic acid [4-(azetidine-1-carbonyl)-pyridin-3-yl]-amide] it is 4.2 nM.
Consider `O=C(NCCO)c1ccncc1NC(=O)c1nc(C2CC2)ccc1Nc1cncnc1` [Example 68, 6-Cyclopropyl-3-(pyrimidin-5-ylamino)-pyridine-2-carboxylic acid [4-(2-hydroxy-ethylcarbamoyl)-pyridin-3-yl]-amide], for which the IC50 was 3.3 nM.
Next, `O=C(NCC(O)CO)c1ccncc1NC(=O)c1nc(C2CC2)ccc1Nc1cncnc1` (stereo not drawn) [Example 69, 6-Cyclopropyl-3-(pyrimidin-5-ylamino)-pyridine-2-carboxylic acid [4-(2,3-dihydroxy-propylcarbamoyl)-pyridin-3-yl]-amide]: 4.1 nM; `CC(C)(O)CNC(=O)c1ccncc1NC(=O)c1nc(C2CC2)ccc1Nc1cncnc1` [Example 70, 6-Cyclopropyl-3-(pyrimidin-5-ylamino)-pyridine-2-carboxylic acid [4-(2-hydroxy-2-methyl-propylcarbamoyl)-pyridin-3-yl]-amide]: 2.1 nM.
Next, `CN(CCCO)C(=O)c1ccncc1NC(=O)c1nc(C2CC2)ccc1Nc1cncnc1` [Example 71, 6-Cyclopropyl-3-(pyrimidin-5-ylamino)-pyridine-2-carboxylic acid {4-[(3-hydroxy-propyl)-methyl-carbamoyl]-pyridin-3-yl}-amide]: 56.4 nM; `COCC(C)NC(=O)c1ccncc1NC(=O)c1nc(C2CC2)ccc1Nc1cncnc1` (stereo not drawn) [Example 72, 6-Cyclopropyl-3-(pyrimidin-5-ylamino)-pyridine-2-carboxylic acid [4-(2-methoxy-1-methyl-ethylcarbamoyl)-pyridin-3-yl]-amide]: 4.2 nM; `CN(CCO)C(=O)c1ccncc1NC(=O)c1nc(C2CC2)ccc1Nc1cncnc1` [Example 73, 6-Cyclopropyl-3-(pyrimidin-5-ylamino)-pyridine-2-carboxylic acid {4-[(2-hydroxy-ethyl)-methyl-carbamoyl]-pyridin-3-yl}-amide]: 18.9 nM.
Next, `CN(C)C(=O)c1nn(-c2ccccn2)cc1NC(=O)c1nc(C2CC2)ccc1Nc1cncnc1` [Example 74, 6-Cyclopropyl-3-(pyrimidin-5-ylamino)-pyridine-2-carboxylic acid (3-dimethylcarbamoyl-1-pyridin-2-yl-1H-pyrazol-4-yl)-amide]: 7.3 nM.
As for `CNC(=O)c1nn(C)cc1NC(=O)c1nc(C(C)C)ncc1Nc1cncnc1` [Example 75, 2-Isopropyl-5-(pyrimidin-5-ylamino)-pyrimidine-4-carboxylic acid (1-methyl-3-methylcarbamoyl-1H-pyrazol-4-yl)-amide], the IC50 was 8.8 nM.
For `CNC(=O)c1nn(C)cc1NC(=O)c1nc(C2CC2)ncc1Nc1cncnc1` [Example 76, 2-Cyclopropyl-5-(pyrimidin-5-ylamino)-pyrimidine-4-carboxylic acid (1-methyl-3-methylcarbamoyl-1H-pyrazol-4-yl)-amide], the IC50 amounted to 7.9 nM.
Next, `CNC(=O)c1nn(C)cc1NC(=O)c1nc(C(C)(C)C)ncc1Nc1cncnc1` [Example 77, 2-tert-Butyl-5-(pyrimidin-5-ylamino)-pyrimidine-4-carboxylic acid (1-methyl-3-methylcarbamoyl-1H-pyrazol-4-yl)-amide]: 3.4 nM; `O=C(NC1CCCCC1)c1ccncc1NC(=O)c1nc(C2CC2)ccc1Nc1cncnc1` [Example 78, 6-Cyclopropyl-3-(pyrimidin-5-ylamino)-pyridine-2-carboxylic acid (4-cyclohexylcarbamoyl-pyridin-3-yl)-amide]: 2 nM.
Next, `O=C(Nc1cnccc1C(=O)N1CC(F)(F)C1)c1nc(C2CC2)ccc1Nc1cncnc1` [Example 79, 6-Cyclopropyl-3-(pyrimidin-5-ylamino)-pyridine-2-carboxylic acid [4-(3,3-difluoro-azetidine-1-carbonyl)-pyridin-3-yl]-amide]: 29.6 nM.
As for `O=C(Nc1cnccc1C(=O)N1CCCC1CO)c1nc(C2CC2)ccc1Nc1cncnc1` (stereo not drawn) [Example 80, 6-Cyclopropyl-3-(pyrimidin-5-ylamino)-pyridine-2-carboxylic acid [4-(2-hydroxymethyl-pyrrolidine-1-carbonyl)-pyridin-3-yl]-amide], the half-inhibitory concentration (IC50) is 105 nM.
Next, `CNC(=O)c1cn2cc(-c3ccccc3)nc2cc1NC(=O)c1nc(C2CC2)ccc1Nc1cncnc1` [Example 81, 7-{[6-Cyclopropyl-3-(pyrimidin-5-ylamino)-pyridine-2-carbonyl]-amino}-2-phenyl-imidazo[1,2-a]pyridine-6-carboxylic acid methylamide]: 0.4 nM; `O=C(Nc1cnccc1C(=O)N1CC(O)C1)c1nc(C2CC2)ccc1Nc1cncnc1` [Example 82, 6-Cyclopropyl-3-(pyrimidin-5-ylamino)-pyridine-2-carboxylic acid [4-(3-hydroxy-azetidine-1-carbonyl)-pyridin-3-yl]-amide]: 58.5 nM; `CNC(=O)c1nn(C)cc1NC(=O)c1nc(CC(C)C)ncc1Nc1cncnc1` [Example 83, 2-Isobutyl-5-(pyrimidin-5-ylamino)-pyrimidine-4-carboxylic acid (1-methyl-3-methylcarbamoyl-1H-pyrazol-4-yl)-amide]: 5.5 nM.
